# Test results reported in patent US11242365B2, “FOXM1-derived peptide, and vaccine including same” (OncoTherapy Science, Inc., priority 2015, dated 2022).
# “Also recorded” adds a separate entry of the source.
# What was measured:
# [1] = system: target cells (C1R-A33) pulsed with peptide; assay: IFN-gamma ELISA of CTL clones established by limiting dilution (HLA-A*33:03); format: cell-based, human; details: CTL clone against peptide-pulsed C1R-A33
# Procedure: (§1) After induction of CTLs in vitro, the CTLs were seeded onto 96-well round-bottomed microplates (Nalge Nunc International) at 1 cell/well or 10 cells/well. The CTLs were cultured with two types of Mitomycin C-treated human B lymphoblastoid cell lines (1×10^4 cells/well each) in a total of 150 micro-l/well 5% ABS/AIM-V medium with an anti-CD3 antibody (final concentration: 30 ng/ml) and IL-2 (final concentration: 125 IU/ml). Ten days later, 50 micro-l 5% ABS/AIM-V medium containing 500 IU/ml IL-2 was added to the culture.
# (§2) Peptide-pulsed C1R-A33 (1×10^4 cells/well) was prepared as the target cell. The IFN-gamma ELISPOT assay and IFN-gamma ELISA were performed according to the assay kit manufacturer's manual.
# [2] = system: target cells (C1R-A33) pulsed with peptide; assay: IFN-gamma ELISA of CTL lines (HLA-A*33:03); format: cell-based, human; details: CTL line against peptide-pulsed C1R-A33
# Procedure: CTLs were propagated using methods similar to those reported by Riddell et al. (Walter E A et al., N Engl J Med 1995, 333(16): 1038-44; Riddell S R et al., Nat Med 1996, 2(2): 216-23). The CTLs were cultured in 25 ml 5% ABS/AIM-V medium together with two types of Mitomycin C-treated human B lymphoblastoid cell lines (5×10^6 cells/25 ml medium each) and an anti-CD3 antibody (final concentration: 40 ng/ml). On the day after beginning of the culturing, IL-2 (final concentration: 120 IU/ml) was added to the culture. On days 5, 8 and 11, the medium was changed to a 5% ABS/AIM-V medium containing IL-2 (final concentration: 30 IU/ml) (Tanaka H et al., Br J Cancer 2001, 84(1): 94-9; Umano Y et al., Br J Cancer 2001, 84(8): 1052-7; Uchida N et al., Clin Cancer Res 2004, 10(24): 8577-86; Suda T et al., Cancer Sci 2006, 97(5): 411-9; Watanabe T et al., Cancer Sci 2005, 96(8): 498-506).
# as §2
# peptide-pulsed C1R-A33 = assay: In vitro CTL induction, IFN-gamma ELISPOT assay (HLA-A*33:03); format: cell-based, human; details: CD8 positive T cells of HLA-A*33:03-positive donors after three stimulations with peptide-pulsed DCs; peptide-pulsed vs non-pulsed C1R-A33
# Procedure: (§3) Monocyte-derived dendritic cells (DCs) were used as the antigen-presenting cell to induce a specific cytotoxic T lymphocyte (CTL) response against peptides presented on human leukocyte antigens (HLAs). As already reported in literatures, DCs were generated in vitro (Nakahara S et al., Cancer Res 2003, 63(14): 4112-8). Specifically, peripheral-blood mononuclear cells (PBMCs) collected from healthy volunteers (HLA-A*33:03-positive) with the Ficoll-Paque plus solution (Pharmacia) were seeded in plastic tissue culture dishes (Corning) to let the monocytes in the PBMCs adhere to the dishes. This was cultured in the presence of 1000 IU/ml granulocyte macrophage colony-stimulating factor (R&D System) and 1000 IU/ml interleukin (IL)-4 (R&D System) for seven days. An AIM-V medium (Invitrogen) containing 5% inactivated AB-type serum (ABS) was used as the medium. DCs that were induced to differentiate from monocytes using the cytokines were pulsed with 20 micro-g/ml of each synthesized peptide (37 degrees C., three hours). Peptide pulsing was carried out in an AIM-V medium containing 3 micro-g/ml beta 2-microglobulin. These peptide-pulsed DCs were inactivated by X-ray irradiation (20 Gy), mixed in a 1:20 ratio with autologous CD8 positive T cells obtained by positive selection using the CD8 Positive Isolation Kit (Invitrogen) (1.5×10^4 DCs and 3×10^5 CD8 positive T cells), and cultured in a 48-well plate (Corning). Each well contained 0.5 ml of the 5% ABS/AIM-V medium, and IL-7 (R&D System) was added thereto (final concentration: 10 ng/ml). Two days after the start of the culture, IL-2 (Novartis) was added (final concentration: 20 IU/ml). On day 7 and day 14 of culture, the CD8 positive T cells were further stimulated with peptide-pulsed DCs. The DCs were prepared at the time of use by the same method as above. […]
# peptide-pulsed C1R-A01 = assay: In vitro CTL induction, IFN-gamma ELISPOT assay (HLA-A*01:01); format: cell-based, human; details: CD8 positive T cells of HLA-A*01:01-positive donors after three stimulations with peptide-pulsed DCs; peptide-pulsed vs non-pulsed C1R-A01
# Procedure: as §3, with “(CTL)” for “(CTL) response”, “(HLA-A*01:01-positive)” for “(HLA-A*33:03-positive) with the Ficoll-Paque plus solution (Pharmacia)”, “by” for “by positive selection”, “(Corning).” for “(Corning). Each well contained 0.5 ml of the 5% ABS/AIM-V medium, and IL-7 (R&D System) was added thereto (final concentration: 10 ng/ml). Two days after the start of the culture, IL-2 (Novartis) was added (final concentration: 20 IU/ml). On day 7 and day 14 of culture, the CD8 positive T cells were further stimulated with peptide-pulsed DCs. The DCs were prepared at the time of use by the same method as above.”
# [3] = system: target cells (C1R-A01) pulsed with peptide; assay: IFN-gamma ELISA of CTL clones established by limiting dilution (HLA-A*01:01); format: cell-based, human; details: CTL clone against peptide-pulsed C1R-A01; listed as FOXM1-A01-9-233
# Procedure: as §1
# Peptide-pulsed C1R-A01 (1×10^4 cells/well) was prepared as the target cell. The IFN-gamma ELISPOT assay and IFN-gamma ELISA were performed according to the assay kit manufacturer's manual.
# [4] = system: COS7 cells expressing FOXM1 and HLA-A*33:03; assay: IFN-gamma production of CTL clone against target cells expressing FOXM1 and HLA-A*33:03; format: cell-based, African green monkey
# Source text: A cDNA encoding the FOXM1 or HLA-A*33:03 gene was amplified by PCR. The PCR-amplified product was each incorporated into an expression vector. Either or both of the FOXM1 gene-expressing vector and the HLA-A*33:03 gene-expressing vector were introduced into COS7 cells, which is a cell line negative for HLA, using Lipofectamine 2000 (Invitrogen). On the day after gene introduction, COS7 cells were detached and harvested using versene (Invitrogen), and used as the target cell for confirmation of IFN-gamma production (5×10^4 cells/well).
# IFN-gamma production of the FOXM1-A33-9-308 (SEQ ID NO: 2)-specific CTL clone against target cells expressing FOXM1 and HLA-A*33:03 was investigated. COS7 cells expressing both FOXM1 and HLA-A*33:03 were prepared as the target cell. COS7 cells expressing either one of FOXM1 and HLA-A*33:03 were prepared as the negative control cell. […] This clearly proves that FOXM1-A33-9-308 (SEQ ID NO: 2) is a peptide generated by antigen processing, and is presented on the cell surface with the HLA-A*33:03 molecule and recognized by CTLs.
sequence,measurement,setting,value
AARDVNLPR (a peptide derived from FOXM1) [SEQ ID NO: 7],peptide-specific IFN-gamma production of CTL clone (ELISA),[1]; listed as FOXM1-A33-9-146,showed a peptide-specific IFN-gamma production
same,IFN-gamma production by the CTL line (ELISA),[2]; listed as FOXM1-A33-9-146,observed; also recorded: CTL lines that produce IFN-gamma in a peptide-specific manner were established
ASLMSSELAR (a peptide derived from FOXM1) [SEQ ID NO: 46],peptide-specific IFN-gamma production (ELISPOT),peptide-pulsed C1R-A33,observed
KTELPLGARR (a peptide derived from FOXM1) [SEQ ID NO: 61],peptide-specific IFN-gamma production (ELISPOT),peptide-pulsed C1R-A01,observed
MSSELARHSK (a peptide derived from FOXM1) [SEQ ID NO: 39],IFN-gamma production by the CTL line (ELISA),[2]; listed as FOXM1-A33-10-391,observed; also recorded: CTL lines that produce IFN-gamma in a peptide-specific manner were established
NLSLHDMFVR (a peptide derived from FOXM1) [SEQ ID NO: 25],peptide-specific IFN-gamma production (ELISPOT),peptide-pulsed C1R-A33,not observed
SLSNIQWLR (a peptide derived from FOXM1) [SEQ ID NO: 1],peptide-specific IFN-gamma production (ELISPOT),peptide-pulsed C1R-A33,observed
VSERPPYSY (a peptide derived from FOXM1) [SEQ ID NO: 48],peptide-specific IFN-gamma production of CTL clone (ELISA),[3],showed a peptide-specific IFN-gamma production
WIEDHFPYFK (a peptide derived from FOXM1) [SEQ ID NO: 42],peptide-specific IFN-gamma production (ELISPOT),peptide-pulsed C1R-A01,not observed
same,IFN-gamma production by the CTL line (ELISA),[2]; listed as FOXM1-A33-10-265,observed; also recorded: CTL lines that produce IFN-gamma in a peptide-specific manner were established
WTIHPSANR (a peptide derived from FOXM1) [SEQ ID NO: 2],peptide-specific IFN-gamma production of CTL clone (ELISA),[1]; listed as FOXM1-A33-9-308,showed a peptide-specific IFN-gamma production
same,IFN-gamma production by the CTL line (ELISA),[2]; listed as FOXM1-A33-9-308,observed; also recorded: CTL lines that produce IFN-gamma in a peptide-specific manner were established
same,IFN-gamma production of peptide-specific CTL clone,[4]; COS7 cells expressing both FOXM1 and HLA-A*33:03,showed IFN-gamma production
same,IFN-gamma production of peptide-specific CTL clone,"[4]; negative control: COS7 cells expressing either one of FOXM1 and HLA-A*33:03, listed as FOXM1-A33-9-308",a significant IFN-gamma production was not observed; also recorded: a significant IFN-gamma production was not shown
